Legend:
MDA-MB-231 = test: MTS cell viability assay, 48 h; assay type: cell-based, human; conditions: Homo sapiens; MDA-MB-231, 48 h, MTS; concentration decreasing cell viability by 50% relative to untreated control; read-out: CC50
Description: […] […] This compound carries a primary amino group at the sn-3 position of the glycerolipid and L-rhamno sugar at the sn-2 position via an α-rhamnosidic linkage.
(§1) The cell lines were cultured from frozen stocks originally obtained from ATCC (Manassas, VA, USA). MDA-MB-231, JIMT-1, DU145, MDA-MB-468, Hs578t and MDA-MB-453 were grown in DMEM medium supplemented with 10% FBS. BT-474 cells were grown in DMEM/F12 medium supplemented with 10% FBS. MiaPaCa2 was cultured in DMEM supplemented with 10% FBS and 2.5% horse serum. All the media contained penicillin/streptomycin. U-251 and U-87 in Eagle MEM supplemented by 10% FBS, 1% Non-essential amino acids, 1 mM sodium pyruvate and 2 mM glutamine. BT-549 was cultured in RPMI 1640 medium supplemented with 10% FBS.
The effects of the GAELs on the viability of the epithelial cancer cell lines were determined as previously described. Briefly, equal numbers of the cells were dispersed into 96-well plates. […] MTS reagent [3-(4,5-dimethylthiazol-2-yl)-5-(3-carboxymethoxyphenyl)-2-(4-sulfophenyl)-2H-tetrazolium, inner salt; Promega, Madison, WI, USA] (20% v/v) was subsequently added and the plates were incubated for 1–4 h in a CO2 incubator followed by measurement of the medium at OD490 with a plate reader (Molecular Devices).

DU-145 [1] = test: MTS cell viability assay, 48 h; assay type: cell-based, human; conditions: Homo sapiens; DU-145, 48 h, MTS; read-out: CC50
Description: (§2) The cells were incubated with increasing concentrations of the compounds (0–30 µM) for 48 h followed by assessment of cell viability using the MTS assay. […] This compound carries a primary amino group at the sn-3 position of the glycerolipid and L-rhamno sugar at the sn-2 position via an α-rhamnosidic linkage.
as §1
(§3) The effects of the GAELs on the viability of the epithelial cancer cell lines were determined as previously described. Briefly, equal numbers of the cells were dispersed into 96-well plates. After 24 h, the cells were incubated with the compounds (0–30 µM) for 48 h. MTS reagent [3-(4,5-dimethylthiazol-2-yl)-5-(3-carboxymethoxyphenyl)-2-(4-sulfophenyl)-2H-tetrazolium, inner salt; Promega, Madison, WI, USA] (20% v/v) was subsequently added and the plates were incubated for 1–4 h in a CO2 incubator followed by measurement of the medium at OD490 with a plate reader (Molecular Devices).

MiaPaCa2 = test: MTS cell viability assay, 48 h; assay type: cell-based, human; conditions: Homo sapiens, MIA PaCa-2; MiaPaCa2, 48 h, MTS; read-out: CC50
Description: as §2, §1, §3

MDA-MB-453 = test: MTS cell viability assay, 48 h; assay type: cell-based, human
Description: Concentrations of compound 3 between 6–15 µM were sufficient to kill all the triple negative cell lines with the exception of MDA-MB-453 where viability was inhibited by 60% at the highest concentration tested. 30 µM of 3 was required for complete loss of viability of the hormone sensitive breast cancer BT474 cell line.
as §1
as §3, with “MTS reagent [3-(4,5-dimethylthiazol-2-yl)-5-(3-carboxymethoxyphenyl)-2-(4-sulfophenyl)-2H-tetrazolium, inner salt; Promega, Madison, WI, USA]” left out, “Devices). […]” for “Devices).”

DU-145 [2] = conditions: DU-145, absence or presence of 40 µM QVD, 48 h
Description: (§4) One of the hallmark features of cytotoxic GAELs is their ability to kill cancer cells via an apoptosis-independent mechanism. We evaluated whether the mechanism of action of 3 was similar to other GAELs.
(§5) Equal numbers of JIMT-1, or DU145 cells were dispersed into 96-well plates, and after 4 h the cells were treated with pan-caspase inhibitor QVD-OPh (40 µM). After 20 h, the cells were incubated with the varying concentration of the compounds ([…]) for 48 h. At the end of the incubation, the MTS assay was used to assess cell viability as described above.
(§6) DU-145 or JIMT-1 cell lines were treated with increasing concentrations of 3 or Adriamycin in the presence or absence of 40 µM QVD. Four hours after plating, cells were treated with QVD. After 20 h, the cells were incubated with 0–15 µM 3 or 0–4 µM Adriamycin for 48 h. Cell viability relative to vehicle control was measured by MTS assay.

JIMT-1 = conditions: JIMT-1, absence or presence of 40 µM QVD, 48 h
Description: as §4, §5, §6

CCCCCCCCCCCCCCCCOCC(CN)OC1OC(C)C(O)C(O)C1O [Compound 3, 3-Amino-1-O-hexadecyloxy-2R-(O–α-L-rhamnopyranosyl)-sn-glycerol]
CC50 (MDA-MB-231): 4.8 µM | CC50 (DU-145 [1]): 8.2 µM | CC50 (MiaPaCa2): 8.5 µM | CC50 (MDA-MB-453; Homo sapiens, MDA-MB-453): 13.8 µM | Viability inhibited (MDA-MB-453; MDA-MB-453, at the highest concentration tested): 60% | Effect of QVD on cytotoxicity (DU-145 [2]): no statistically significant differences | Effect of QVD on cytotoxicity (JIMT-1): no statistically significant differences
